Data from the OligoGym collection.
HELM strings list units from the 5' end as sugar, base in round brackets, then linkage (d deoxyribose, r ribose, m 2'-O-methyl, p phosphodiester). Strings are as the collection lists them, not checked against the first reports. ss, as = sense and antisense strand; [hna] = hexitol nucleic acid; [fl2r] = 2'-fluoro

Settings: siRNA
Further: test system not given here.

Substance	target mRNA knockdown [%]
RNA1{r(G)p.r(A)p.r(A)p.r(G)p.r(A)p.r(G)p.r(C)p.r(C)p.m(U)p.r(A)p.m(C)p.r(A)p.m(C)p.r(A)p.r(A)p.r(C)p.r(C)p.r(C)p.r(U)p.r(T)p.r(T)}|RNA2{r(A)p.r(G)p.r(G)p.r(G)p.r(U)p.m(U)p.r(G)p.m(U)p.r(G)p.m(U)p.r(A)p.r(G)p.r(G)p.r(C)p.r(U)p.r(C)p.r(U)p.r(U)p.r(C)p.r(T)p.r(T)}$$$RNA1{StrandType:ss}|RNA2{StrandType:as}$	75
RNA1{r(G)p.r(A)p.r(A)p.r(G)p.r(A)p.r(G)p.r(C)p.r(C)p.m(U)p.r(A)p.m(C)p.r(A)p.r(C)p.r(A)p.r(A)p.r(C)p.r(C)p.r(C)p.r(U)p.r(T)p.r(T)}|RNA2{r(A)p.r(G)p.r(G)p.r(G)p.r(U)p.r(U)p.r(G)p.m(U)p.r(G)p.m(U)p.r(A)p.r(G)p.r(G)p.r(C)p.r(U)p.r(C)p.r(U)p.r(U)p.r(C)p.r(T)p.r(T)}$$$RNA1{StrandType:ss}|RNA2{StrandType:as}$	76
RNA1{r(G)p.r(A)p.r(A)p.r(G)p.r(A)p.r(G)p.r(C)p.r(C)p.r(U)p.r(A)p.m(C)p.r(A)p.m(C)p.r(A)p.r(A)p.r(C)p.r(C)p.r(C)p.r(U)p.r(T)p.r(T)}|RNA2{r(A)p.r(G)p.r(G)p.r(G)p.r(U)p.m(U)p.r(G)p.r(U)p.r(G)p.m(U)p.r(A)p.r(G)p.r(G)p.r(C)p.r(U)p.r(C)p.r(U)p.r(U)p.r(C)p.r(T)p.r(T)}$$$RNA1{StrandType:ss}|RNA2{StrandType:as}$	74
RNA1{r(G)p.r(A)p.r(A)p.r(G)p.r(A)p.r(G)p.r(U)p.m(U)p.r(A)p.r(A)p.r(C)p.r(C)p.r(C)p.m(G)p.r(G)p.r(G)p.m(A)p.r(C)p.r(U)p.r(T)p.r(T)}|RNA2{r(A)p.r(G)p.r(U)p.r(C)p.r(C)p.r(C)p.r(G)p.r(G)p.r(G)p.r(U)p.m(U)p.r(A)p.r(A)p.r(C)p.r(U)p.r(C)p.r(U)p.r(U)p.r(C)p.r(T)p.r(T)}$$$RNA1{StrandType:ss}|RNA2{StrandType:as}$	47
RNA1{r(G)p.r(A)p.r(A)p.r(G)p.r(A)p.r(G)p.r(U)p.m(U)p.r(A)p.r(A)p.r(C)p.r(C)p.r(C)p.r(G)p.r(G)p.r(G)p.r(A)p.r(C)p.r(U)p.r(T)p.r(T)}|RNA2{r(A)p.r(G)p.r(U)p.r(C)p.r(C)p.r(C)p.r(G)p.r(G)p.r(G)p.r(U)p.m(U)p.r(A)p.r(A)p.r(C)p.r(U)p.r(C)p.r(U)p.r(U)p.r(C)p.r(T)p.r(T)}$$$RNA1{StrandType:ss}|RNA2{StrandType:as}$	51
RNA1{r(G)p.r(A)p.r(A)p.r(G)p.r(A)p.r(U)p.r(A)p.r(G)p.r(G)p.r(A)p.r(A)p.r(G)p.r(G)p.r(G)p.r(G)p.r(C)p.r(U)p.r(U)p.r(C)p.r(T)p.r(T)}|RNA2{r(G)p.r(A)p.r(A)p.r(G)p.[fl2r](C)p.[fl2r](C)p.[fl2r](C)p.[fl2r](C)p.[fl2r](U)p.[fl2r](U)p.[fl2r](C)p.[fl2r](C)p.[fl2r](U)p.r(A)p.[fl2r](U)p.[fl2r](C)p.[fl2r](U)p.[fl2r](U)p.[fl2r](C)p.r(T)p.r(T)}$$$RNA1{StrandType:ss}|RNA2{StrandType:as}$	5
RNA1{r(G)p.r(A)p.r(A)p.r(G)p.r(G)p.r(G)p.r(G)p.r(A)p.r(A)p.r(A)p.r(U)p.m(C)p.r(U)p.r(G)p.r(U)p.r(G)p.r(G)p.r(U)p.r(U)p.r(T)p.r(T)}|RNA2{r(A)p.r(A)p.r(C)p.m(C)p.r(A)p.r(C)p.r(A)p.r(G)p.r(A)p.r(U)p.r(U)p.r(U)p.r(C)p.r(C)p.r(C)p.r(C)p.r(U)p.r(U)p.r(C)p.r(T)p.r(T)}$$$RNA1{StrandType:ss}|RNA2{StrandType:as}$	65
RNA1{r(G)p.r(A)p.r(A)p.r(G)p.r(G)p.r(G)p.r(G)p.r(A)p.r(A)p.r(A)p.r(U)p.r(C)p.m(U)p.m(G)p.m(U)p.m(G)p.r(G)p.r(U)p.r(U)p.r(T)p.r(T)}|RNA2{r(A)p.r(A)p.r(C)p.m(C)p.m(A)p.m(C)p.m(A)p.r(G)p.r(A)p.r(U)p.r(U)p.r(U)p.r(C)p.r(C)p.r(C)p.r(C)p.r(U)p.r(U)p.r(C)p.r(T)p.r(T)}$$$RNA1{StrandType:ss}|RNA2{StrandType:as}$	61
RNA1{r(G)p.r(A)p.r(C)p.[fl2r](C)p.r(A)p.r(C)p.r(G)p.r(A)p.r(A)p.r(G)p.r(A)p.r(G)p.r(U)p.[fl2r](U)p.r(A)p.r(A)p.r(C)p.r(C)p.r(C)p.r(T)p.r(T)}|RNA2{r(G)p.r(G)p.r(G)p.r(U)p.[fl2r](U)p.r(A)p.r(A)p.r(C)p.r(U)p.r(C)p.r(U)p.r(U)p.r(C)p.r(G)p.[fl2r](U)p.r(G)p.r(G)p.r(U)p.r(C)p.r(T)p.r(T)}$$$RNA1{StrandType:ss}|RNA2{StrandType:as}$	85
RNA1{r(G)p.r(A)p.r(C)p.r(A)p.r(A)p.r(G)p.r(G)p.r(G)p.r(A)p.r(A)p.r(G)p.r(G)p.r(U)p.m(U)p.r(A)p.r(G)p.r(C)p.r(C)p.r(U)p.r(T)p.r(T)}|RNA2{r(A)p.r(G)p.r(G)p.r(C)p.m(U)p.r(A)p.r(A)p.r(C)p.r(C)p.r(U)p.r(U)p.r(C)p.r(C)p.r(C)p.r(U)p.r(U)p.r(G)p.r(U)p.r(C)p.r(T)p.r(T)}$$$RNA1{StrandType:ss}|RNA2{StrandType:as}$	72
RNA1{r(G)p.r(A)p.r(C)p.r(C)p.r(A)p.r(C)p.r(G)p.r(A)p.r(A)p.r(G)p.r(A)p.r(G)p.r(U)p.[fl2r](U)p.r(A)p.r(A)p.r(C)p.r(C)p.r(C)p.r(T)p.r(T)}|RNA2{r(G)p.r(G)p.r(G)p.r(U)p.[fl2r](U)p.r(A)p.r(A)p.r(C)p.r(U)p.r(C)p.r(U)p.r(U)p.r(C)p.r(G)p.r(U)p.r(G)p.r(G)p.r(U)p.r(C)p.r(T)p.r(T)}$$$RNA1{StrandType:ss}|RNA2{StrandType:as}$	82
RNA1{r(G)p.r(A)p.r(C)p.r(G)p.[hna](U)p.r(A)p.r(A)p.[hna](A)p.r(C)p.r(G)p.[hna](G)p.r(C)p.r(C)p.[hna](A)p.r(C)p.r(A)p.r(A)p.r(G)p.[hna](U)p.[hna](U)p.d(T)}|RNA2{[fl2r](A)p.m(C)p.[fl2r](U)p.m(U)p.[fl2r](G)p.m(U)p.[fl2r](G)p.m(G)p.[fl2r](C)p.m(C)p.[fl2r](G)p.m(U)p.[fl2r](U)p.m(U)p.[fl2r](A)p.m(C)p.[fl2r](G)p.m(U)p.[fl2r](C)p.m(G)p.[fl2r](C)}$$$RNA1{StrandType:ss}|RNA2{StrandType:as}$	23.3
RNA1{r(G)p.r(A)p.r(C)p.r(G)p.[hna](U)p.r(A)p.r(A)p.[hna](A)p.r(C)p.r(G)p.[hna](G)p.r(C)p.r(C)p.[hna](A)p.r(C)p.r(A)p.r(A)p.r(G)p.[hna](U)p.[hna](U)p.d(T)}|RNA2{r(A)p.[hna](C)p.r(U)p.r(U)p.r(G)p.r(U)p.r(G)p.r(G)p.r(C)p.r(C)p.r(G)p.r(U)p.r(U)p.r(U)p.r(A)p.r(C)p.r(G)p.[hna](U)p.[hna](C)p.[hna](G)p.d(T)}$$$RNA1{StrandType:ss}|RNA2{StrandType:as}$	23.2
RNA1{r(G)p.r(A)p.r(C)p.r(G)p.[hna](U)p.r(A)p.r(A)p.[hna](A)p.r(C)p.r(G)p.[hna](G)p.r(C)p.r(C)p.[hna](A)p.r(C)p.r(A)p.r(A)p.r(G)p.[hna](U)p.[hna](U)p.d(T)}|RNA2{r(A)p.m(C)p.r(U)p.r(U)p.r(G)p.r(U)p.r(G)p.r(G)p.r(C)p.r(C)p.r(G)p.r(U)p.r(U)p.r(U)p.r(A)p.r(C)p.r(G)p.r(U)p.r(C)p.r(G)p.r(C)}$$$RNA1{StrandType:ss}|RNA2{StrandType:as}$	44.7
